The source of these data is US20170044208A1, “SELECTIVE GLUCOCORTICOID RECEPTOR LIGANDS” (The University of Manchester, priority 2013, published 2017).

One series addresses T1, GR (Homo sapiens, UniProt P04150).
T1 sequence (P04150 1-777): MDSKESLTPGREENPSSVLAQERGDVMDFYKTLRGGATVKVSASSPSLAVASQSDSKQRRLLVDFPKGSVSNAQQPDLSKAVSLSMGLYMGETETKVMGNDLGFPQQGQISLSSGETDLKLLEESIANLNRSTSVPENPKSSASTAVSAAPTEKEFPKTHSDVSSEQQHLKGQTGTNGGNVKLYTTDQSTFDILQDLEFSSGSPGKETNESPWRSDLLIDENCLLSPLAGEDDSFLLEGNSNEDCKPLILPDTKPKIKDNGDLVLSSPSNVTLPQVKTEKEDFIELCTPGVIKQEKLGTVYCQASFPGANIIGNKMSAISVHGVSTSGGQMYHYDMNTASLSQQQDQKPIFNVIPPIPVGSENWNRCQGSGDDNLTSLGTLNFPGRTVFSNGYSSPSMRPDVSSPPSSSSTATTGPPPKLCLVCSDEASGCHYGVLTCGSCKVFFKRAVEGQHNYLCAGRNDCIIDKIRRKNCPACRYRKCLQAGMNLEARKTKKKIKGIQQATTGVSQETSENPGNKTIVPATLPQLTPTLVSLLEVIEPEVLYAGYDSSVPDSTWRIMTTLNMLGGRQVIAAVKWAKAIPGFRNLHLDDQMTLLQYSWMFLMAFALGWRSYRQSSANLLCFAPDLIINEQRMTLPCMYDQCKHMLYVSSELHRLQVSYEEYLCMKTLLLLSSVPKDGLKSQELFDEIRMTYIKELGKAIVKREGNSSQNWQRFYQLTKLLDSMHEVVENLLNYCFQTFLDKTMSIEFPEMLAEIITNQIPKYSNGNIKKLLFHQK
The conditions noted are these: further analyses, Vayssiere et al. 1997; cited from earlier work.

In another series the test system is apoptosis. To be noted: cited from earlier work.
For the next series, the target named is T2, progesterone receptor (Homo sapiens, UniProt P06401).
T2 sequence (P06401 1-933): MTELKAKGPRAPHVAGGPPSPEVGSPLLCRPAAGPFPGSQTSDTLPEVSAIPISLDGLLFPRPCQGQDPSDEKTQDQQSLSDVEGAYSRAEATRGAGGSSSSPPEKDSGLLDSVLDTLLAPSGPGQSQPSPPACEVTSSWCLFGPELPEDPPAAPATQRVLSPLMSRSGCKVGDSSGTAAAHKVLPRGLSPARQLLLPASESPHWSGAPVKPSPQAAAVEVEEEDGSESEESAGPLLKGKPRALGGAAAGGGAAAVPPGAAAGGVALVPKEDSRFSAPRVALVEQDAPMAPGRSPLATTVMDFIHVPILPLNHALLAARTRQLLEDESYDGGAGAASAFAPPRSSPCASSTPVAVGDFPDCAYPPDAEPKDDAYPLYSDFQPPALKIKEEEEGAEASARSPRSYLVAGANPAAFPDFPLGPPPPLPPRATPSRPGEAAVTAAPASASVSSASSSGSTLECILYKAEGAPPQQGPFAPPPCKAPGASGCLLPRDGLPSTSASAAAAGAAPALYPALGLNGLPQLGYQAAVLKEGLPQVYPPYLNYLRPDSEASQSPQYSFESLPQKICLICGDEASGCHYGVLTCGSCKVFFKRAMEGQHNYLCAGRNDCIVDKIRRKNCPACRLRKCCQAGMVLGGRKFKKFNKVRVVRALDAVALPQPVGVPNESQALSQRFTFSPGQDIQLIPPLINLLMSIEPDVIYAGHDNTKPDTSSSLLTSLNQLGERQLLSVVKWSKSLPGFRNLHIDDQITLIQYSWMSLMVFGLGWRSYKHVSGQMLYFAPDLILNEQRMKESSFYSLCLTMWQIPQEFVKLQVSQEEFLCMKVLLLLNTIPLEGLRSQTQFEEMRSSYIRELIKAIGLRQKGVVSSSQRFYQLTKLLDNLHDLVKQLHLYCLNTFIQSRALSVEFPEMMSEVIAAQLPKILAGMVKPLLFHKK
To be noted: cited from earlier work.

In series [1] the target is T3, Glucocorticoid Receptor (GR) (Homo sapiens, UniProt P04150).
T3 construct: Cells were transfected the next day with MMTV-Luc (5 μg) and pGL4-hRLuc (0.1 μg); endogenous in cells; host or cells: HeLa
T3 sequence (P04150 1-777): T1 sequence (P04150 1-777)
Nature of the series: Transactivation assay (MMTV-Luc reporter in HeLa cells). In kind it is cell-based. The conditions noted are these: for Emax / EC50: HeLa; for Emax: 16 h, read-out: TA Max %; for EC50: concentration for half-maximal transactivation, MMTV-Luc, 16 hours, mean, read-out: TA EC50. The procedure:
HeLa cells were seeded at 80×10^4 cells/dish in 100 mm dishes. Cells were transfected the next day with MMTV-Luc (5 μg) and pGL4-hRLuc (0.1 μg), in 250 μL of Opti-MEM I using FuGENE HD (15 μL). After 24 hours, cells were trypsinized and seeded into 96-well plates at a density of 8-10×10^4 cells/mL.
Following overnight incubation to allow attachment, cells were treated with the required concentration of compounds, then further incubated for 16 hours. Media was aspirated and cells lysed in 40 μL of 1×PLB.
(§1) Firefly and Renilla luciferase activity was measured using the Dual Luciferase Reporter system following the manufacturer's protocol.
(§2) IC50 and EC50 values were calculated by using GraphPad Prism 5.0. Briefly, luminescence values for luciferase were normalised using the Renilla luminescence values. The normalised values were input into GraphPad Prism 5.0. Non-linear regression analysis was carried out using the “log(concentration) vs. response” equation of the software, with a Hill slope coefficient fixed at 1.
(§3) IC50 and EC50 values are mean values in nM of all IC50/EC50 values for the compound. Max % values are mean values of the Max% activity.

The next series has as its system NFkB. As to the kind of experiment: Transrepression assay (NFκB-LUC reporter in HeLa cells, TNF stimulated). In kind it is cell-based. The conditions noted are these: for IC50 / Emax: Homo sapiens, HeLa; for Emax: 16 h, read-out: TR Max %. As for the experimental part: HeLa cells were seeded at 80×10^4 cells/dish in 100 mm dishes. Cells were transfected the next day with NFκB-LUC reporter (5 μg) and pGL4-hRLuc (0.1 μg), in 0.25 mL of Opti-MEM I using FuGENE HD (15 μL). After 24 hours, cells were trypsinized and seeded in to 24-well plates at a density of 8-10×10^4 cells/mL. Following overnight incubation, cells were starved for a further 24 hours in DMEM.
On the day of the experiment, compounds were added to cells one hour prior to the addition of […] (0.5 ng/mL). After a further 16 hours, cells were washed twice with ice-cold PBS, then lysed with 100 μL of 1×PLB.
as §1, §2, §3

Series [2] deals with T4, mineralocorticoid receptor (MR) (Homo sapiens, UniProt P08235).
T4 sequence (P08235 1-984): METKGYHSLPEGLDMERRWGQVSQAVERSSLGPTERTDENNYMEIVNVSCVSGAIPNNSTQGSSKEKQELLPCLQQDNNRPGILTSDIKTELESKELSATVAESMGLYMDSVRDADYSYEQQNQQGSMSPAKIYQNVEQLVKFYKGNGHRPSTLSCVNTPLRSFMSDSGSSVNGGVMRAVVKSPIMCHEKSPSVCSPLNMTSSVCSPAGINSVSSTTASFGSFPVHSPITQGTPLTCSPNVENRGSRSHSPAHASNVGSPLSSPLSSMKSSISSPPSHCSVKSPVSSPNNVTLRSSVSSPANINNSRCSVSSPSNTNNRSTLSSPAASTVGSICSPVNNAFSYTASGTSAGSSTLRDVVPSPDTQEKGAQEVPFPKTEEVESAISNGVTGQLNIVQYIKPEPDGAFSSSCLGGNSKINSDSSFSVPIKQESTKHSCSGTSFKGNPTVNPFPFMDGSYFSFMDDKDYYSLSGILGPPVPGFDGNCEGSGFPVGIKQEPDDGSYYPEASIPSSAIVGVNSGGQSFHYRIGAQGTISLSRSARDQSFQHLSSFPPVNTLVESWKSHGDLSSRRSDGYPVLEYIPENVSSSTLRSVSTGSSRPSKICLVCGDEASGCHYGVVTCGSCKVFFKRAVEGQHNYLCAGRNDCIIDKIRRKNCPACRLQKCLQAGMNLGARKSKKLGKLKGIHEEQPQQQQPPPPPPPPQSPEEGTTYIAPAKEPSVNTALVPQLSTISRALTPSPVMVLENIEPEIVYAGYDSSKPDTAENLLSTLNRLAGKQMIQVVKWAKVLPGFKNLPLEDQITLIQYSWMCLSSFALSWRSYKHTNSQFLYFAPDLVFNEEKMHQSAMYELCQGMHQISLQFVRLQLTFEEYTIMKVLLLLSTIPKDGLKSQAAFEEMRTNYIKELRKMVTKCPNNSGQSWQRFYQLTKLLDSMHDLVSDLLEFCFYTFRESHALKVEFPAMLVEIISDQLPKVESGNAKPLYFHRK
As to the kind of experiment: Steroid receptor cross-reactivity, mineralocorticoid receptor. Format: cell-based. To be noted: FIG. 3. The source says: There is a high degree of structural similarity between the various human steroid receptors. Ligands may therefore cross-react with other members of the steroid receptor family. In particular progesterone receptor and mineralocorticoid receptor show the highest structural similarity.

Another series deals with rat adjuvant arthritis. Nature of the series: Established rat adjuvant arthritis. The conditions noted are these: increasing doses, FIG. 7. Format: in vivo. The source says:
Established rat arthritis was chosen as the most relevant predictive model for chronic inflammatory arthritis in man. The disease is initiated with a caudal injection of complete Freund's adjuvant and the disease is established after 14 days. Anti-inflammatory molecules are given orally, usually once a day and after 7 days the animals are sacrificed. Paw volumes are the primary measurement and as a secondary measure inflammatory lesions are scored at a number of sites. At autopsy adrenal, spleen and thymus weights are recorded.
The arthritis score for the rats was used in these studies, as the inflammatory disease consists of both destructive inflammatory arthritis, but also systemic manifestations.
This analysis uses the area under the curve of arthritis score over the course of the experiment to yield a single, integrated measure for each experimental animal. The area under the curve of the vehicle treated animal is indicated on the graph for comparison purposes, but marked at an arbitrary log dose.

A further series deals with osteoblast activity. As to the kind of experiment: Rat bone formation assay, serum osteocalcin. Format: in vivo. To be noted: daily oral, terminal (35 day) plasma, FIG. 9.
In another series the test system is endosteal bone formation. As to the kind of experiment: Rat endosteal bone increment. In kind it is in vivo. To be noted: daily oral dose, FIG. 10. The source says: However, osteoblast activity is not uniform across the skeleton, which may result in either over, or under estimation of the steroid effect. In young, growing, rats long bone remodelling during bone growth offers an attractive model to study active bone formation as the endosteal surface has new bone formation as the diameter of the shaft decreases due to endosteal bone formation, and periosteal bone resorption. As shown in FIG. 11 (CT reconstruction) as long bones grow the diameter of the shaft at the growing end (20% mark) is greater than that towards the middle of the bone (30% and 40% marks) due to loss of bone at the outer surface, or periosteal surface, and deposition of bone, due to osteoblast action, on the inner surface, or endosteal surface.
In contrast, there was no effect of Dex124 seen until 100 mg/Kg, giving an estimated IC50 of approximately 90 mg/Kg.

Where [3] appears, read: concentration for half-maximal repression of NFkB, TNF 0.5 ng/mL, 16 hours, mean, read-out: TR IC50.

Like-named read-outs stand apart in the source and are kept apart here.

From the text for osteoblast activity: For the analysis of bone metabolism, and its regulation by orally administered GC, a rat bone formation assay was used.
Terminal (35 day) plasma was harvested, and osteocalcin measured, as an integrated measure of osteoblast activity across the skeleton.

For `C[C@@H]1C[C@H]2[C@@H]3CCC4=CC(=O)C=C[C@]4(C)[C@@]3(F)[C@@H](O)C[C@]2(C)[C@H]1C(=O)CC#N` [RU24858], the GR agonist character entry on GR was “low potency, low efficacy full agonist”. Besides, the induction of apoptosis entry in the series with apoptosis was “does not induce apoptosis”. Moreover, on progesterone receptor, the progesterone receptor activation entry is given as “activating the progesterone receptor”.

A word on the IC50: it is the midpoint of a concentration-inhibition curve. In [1] (comparison table, against maximal activation seen with dexamethasone), `C[C@]12C=CC(=O)C=C1CC[C@@H]1[C@@H]2[C@@H](O)C[C@@]2(C)[C@H]1CC[C@]2(O)C(=O)CO` [Pred, prednisolone] registered a TA % of 68%. The IC50 with NFkB (comparison table, half-maximal repression of NFkB, multiple experiments, read-out: IC50) is 12.9 nM. For the same compound, the TR % with NFkB (comparison table, maximal NFkB repression compared to Dexamethasone) is listed as 99%. The “activity on mineralocorticoid receptor” value in series [2] was “significant activity”. For the same compound, the “arthritis clinical score (AUC)” value in the series with rat adjuvant arthritis is on record as “inhibit arthritis clinical score”. For the same compound, the osteocalcin concentration entry in the series with osteoblast activity is “dose-dependent inhibition of osteocalcin concentration”. Further, in the series with endosteal bone formation, the “IC50 for decrease in bone increment” value was 7.8 mg/kg.

Usually EC50 stands for the concentration at which the effect is half-maximal. As to `C[C@@H]1C[C@H]2[C@@H]3CCC4=CC(=O)C=C[C@]4(C)[C@@]3(F)[C@@H](O)C[C@]2(C)[C@@]1(O)C(=O)NCCCc1ccccc1O` [Compound 3], in [1], the Emax worked out at 24.1% and the half-maximal effective concentration (EC50) was found to be 1150 nM. For the same compound, the Emax in the series on NFkB came out at 76%. Moreover, in the series on NFkB (setting [3]), the half-maximal inhibitory concentration (IC50) came to 21.9 nM.

Turning to `COc1ccc(C(=O)Nc2nc([C@@]3(O)[C@H](C)C[C@H]4[C@@H]5CCC6=CC(=O)C=C[C@]6(C)[C@@]5(F)[C@@H](O)C[C@@]43C)cs2)cc1` [Compound 34], in series [1], the Emax worked out at 0% and the EC50 came out at 17500 nM. Further, the Emax with NFkB worked out at 51.8%. Besides, the IC50 in the series on NFkB (setting [3]) amounted to 4.76 nM.

`C[C@@H]1C[C@H]2[C@@H]3CCC4=CC(=O)C=C[C@]4(C)[C@@]3(F)[C@@H](O)C[C@]2(C)[C@@]1(O)c1csc(NC(=O)c2cccnc2)n1` [Compound 32]: in series [1], the Emax turned out to be 0.03% and the EC50 is 2230 nM. The Emax in the series on NFkB worked out at 28.5%. Also, in the series with NFkB (setting [3]), the IC50 was determined as 55.2 nM.

Turning to `C[C@@H]1C[C@H]2[C@@H]3CCC4=CC(=O)C=C[C@]4(C)[C@@]3(F)[C@@H](O)C[C@]2(C)[C@@]1(O)c1csc(NC(=O)c2ccc(C(F)(F)F)cc2)n1` [Compound 30], in [1], the Emax was 7.43% and the EC50 is 1410 nM. In addition, in the series with NFkB, the Emax is 41.3%. For the same compound, the IC50 with NFkB (setting [3]) is 35.5 nM.
